Consider one molecule from patent US20060172334A1, “Method for detecting adverse reaction susceptibility to an HMG CoA reductase inhibitor” (Marshfield Clinic, priority 2005, published 2006).

Where two headings read alike, the source gives them in different places.

The conditions of this series: cases only.
[1] abbreviates: CYP3A4 heterozygous (CYP3A4*1A/*1B), less gemfibrozil.
[2] abbreviates: CYP3A4 heterozygous (CYP3A4*1A/*1B), less gemfibrozil AND less niacin.
[3] abbreviates: CYP3A4 heterozygous (CYP3A4*1A/*1B), no medications removed.
Setting [4] is: CYP3A4 homozygous (CYP3A4*1A/*1A), less gemfibrozil.
[5] abbreviates: CYP3A4 homozygous (CYP3A4*1A/*1A), less gemfibrozil AND less niacin.
The mark [6] stands for this setting: CYP3A4 homozygous (CYP3A4*1A/*1A), no medications removed.
Setting [7] is: CYP3A5 heterozygous (CYP3A5*1/*3), less gemfibrozil.
Setting [8] is: CYP3A5 heterozygous (CYP3A5*1/*3), less gemfibrozil AND less niacin.
The mark [9] stands for this setting: CYP3A5 heterozygous (CYP3A5*1/*3), no medications removed.
Where [10] appears, read: CYP3A5 homozygous (CYP3A5*3/*3), less gemfibrozil.
[11] abbreviates: CYP3A5 homozygous (CYP3A5*3/*3), less gemfibrozil AND less niacin.
The mark [12] stands for this setting: CYP3A5 homozygous (CYP3A5*3/*3), no medications removed.

Description: Study subjects were enrolled at a large, horizontally-integrated, multispecialty group practice located in central Wisconsin. […] Case assignment (i.e., status as a case versus control) was determined by criteria outlined below.
One hundred thirty-seven adult subjects (68 cases and 69 controls) agreed to participate in this study. Due to potentially confounding pharmacokinetic interactions, patients were excluded from the study if they had previously been diagnosed with kidney disease or liver disease. Patients were also excluded if they had pre-existing muscle disease. Patients were not excluded if they were taking concomitant medications.
To determine whether CYP3A4*1B or CYP3A5*3 were associated with the severity of muscle damage, serum CK levels were ranked and compared between genotypes in the case cohort only.

In the case of `CC(C)c1c(C(=O)Nc2ccccc2)c(-c2ccccc2)c(-c2ccc(F)cc2)n1CC[C@@H](O)C[C@@H](O)CC(=O)O` [atorvastatin], the “serum CK level, Mean” value under setting [1] stood at 268.8; the “serum CK level, Mean” value under setting [2] amounted to 246.6; the “serum CK level, Mean” value under setting [3] worked out at 268.8; the “serum CK level, Mean” value under setting [4] is reported as 434.6; the “serum CK level, Mean” value under setting [5] worked out at 420.4; the “serum CK level, Mean” value under setting [6] came out at 441.1. For the same molecule, the “serum CK level, Mean” value by setting is: under setting [7], 261.7; under setting [8], 249.9; under setting [9], 344.0; under setting [10], 441.9; under setting [11], 428.0; under setting [12], 429.2. Moreover, the “serum CK level, Median” value was 246.0 under setting [1]; 239.0 under setting [2]; 246.0 under setting [3]; 316.5 under setting [4]; 316.5 under setting [5]; 321.0 under setting [6]. Also, the “serum CK level, Median” value under setting [7] came to 239.0; the “serum CK level, Median” value under setting [8] is recorded as 237.5; the “serum CK level, Median” value under setting [9] is 246.0; the “serum CK level, Median” value under setting [10] is reported as 321.0; the “serum CK level, Median” value under setting [11] came to 321.0; the “serum CK level, Median” value under setting [12] was found to be 317.5.
